# Read-outs that look alike come from different tables or passages of the source.
# What was measured:
# [1] = system: RAW264.7 macrophages; experiment: IL-10 mRNA in RAW264.7 cells with shRNA knockdown of SIKs; assay type: cell-based; conditions: for IC50: Mus musculus, RAW264.7, 1 h
# Protocol: . (FIG. 16A) mRNA abundance of SIK1, SIK2 and SIK3 in RAW264.7 macrophages. Gene expression was measured by qPCR. The number of copies of each SIK mRNA was normalized to GAPDH. (mean±SD, n=3). (FIG. 16B) The efficiency of SIK knock-down. RAW264.7 cells were transduced with lentiviral vectors encoding a control shRNA or shRNAs targetting SIK1, SIK2 and SIK3. The expression of SIK1, SIK2 and SIK3 was measured by qPCR and normalized to that of control cells using GAPDH (mean±SD, n=3). […]. The levels of IL-10 mRNA were measured by qPCR and normalized using GAPDH. Data are presented with the highest level of expression set to 1 (mean±SD, n=3). […] (FIG. 16D) Increased IL-10 expression in cells with decreased SIK expression. […].
# RNAi in Macrophages RAW264.7 cells or BMDMs were transfected with 100 pmol of SMARTpool siRNA oligos against CREB, CRTC1, CRTC2, CRTC3 or a non-targetting control (Dharmacon) using AMAXA nucleofection. Cells were cultured for 24 h prior to incubation with inhibitors for 1 h followed by stimulation for 1 h with 100 ng/ml LPS. Gene expression was measured by real-time quantitative PCR. For shRNA knockdown of SIKs, lentivirus was generated according to the manufacturer's instructions (Sigma) and RAW264.7 cells were infected using virus harvested 48 and 72 h post-transfection. Infected cells were selected using 3 μg/ml puromycin. QPCR
# [2] = system: CRTC3; experiment: CRTC3 nuclear translocation (immunofluorescence, live imaging); assay type: cell-based; conditions: WT CRTC3
# Excerpt: FIGS. 15A to 15C. SIK inhibitors induce the dephosphorylation of CRTC3 at Ser62, Ser162, Ser329 and Ser370 and its translocation to the nucleus. (FIG. 15A) HEK293 cells were transfected with FLAG-CRTC2, FLAG-CRTC3 or FLG-CRTC3[S162A]. Aliquots of the cell extracts were subjected to SDS-PAGE and immunoblotting using an antibody that recognizes CRTC2 phosphorylated at Ser171. […] (FIG. 15B) HEK293 cells were transfected with FLAG-CRTC3, FLAG-CRTC3[S62A/S162A/S329A/S370A] (termed CRTC3-4A) or with empty vector (FLAG-ev). […]. (FIG. 15C) Inhibition of SIKs promotes the translocation of endogenous CRTC3 to the nucleus. […].
# RAW264.7 cells were grown on glass coverslips and treated with inhibitors for 1 h. Cells were then fixed for 10 min in 3.7% paraformaldehyde, permeabilized for 5 min using 0.1% Triton X-100 in PBS and blocked for 45 min using 3% BSA in PBS. Cells were stained with anti-CRTC3 (Abcam 1:200) and anti-α-tubulin (Santa Cruz 1:500) followed by anti-rabbit-alexa488 and anti-mouse-alexa594 (Invitrogen 1:500), respectively. Antibodies were diluted in blocking buffer and incubated with the cells for 45 min. […] Images were recorded every 30 s for 1.5 min prior to the addition of drug after which cells were imaged for a further 60 min.
# [3] = system: MARK isoforms; experiment: Kinase assays, MARK isoforms; assay type: biochemical; conditions: in vitro
# Protocol: (§3) FLAG-CRTC3 was immunoprecipitated using anti-FLAG M2 agarose, washed in kinase buffer (50 mM Tris/HCl pH 7.4, 10 mM Mg acetate, 0.1 mM EGTA, 2 mM DTT) and reactions initiated by adding 4 U/ml recombinant kinase with 0.1 mM ATP (specific activity 3000 cpm/pmol). Phosphorylation of CRTC3 was monitored by autoradiography as well as immunoblotting using phosphospecific antibodies raised against Ser162, Ser329 and Ser370.
# [4] = system: NUAK isoforms; experiment: Kinase assays, NUAK isoforms; assay type: biochemical; conditions: in vitro
# Protocol: as §3
# [5] = system: STAT3; experiment: Immunoblotting of STAT3 phosphorylation in LPS-stimulated macrophages; assay type: cell-based, mouse
# Protocol: (§1) FIGS. 2A to 2G. […] As in A except that cells were stimulated for 2 h with LPS.
# (§2) Bone-marrow derived macrophages were differentiated for 7 days in DMEM supplemented with 5 ng/ml recombinant M-CSF (R&D systems), 2 mM glutamine, 10% foetal calf serum, penicillin and streptomycin.
# Cells were rinsed in ice-cold PBS and extracted in lysis buffer (50 mM Tris/HCl pH 7.4, 1 mM EDTA, 1 mM EGTA, 50 mM NaF, 5 mM sodium pyrophosphate, 10 mM sodium α-glycerol 1-phosphate, 1 mM dithiothreitol, 1 mM sodium orthovanadate, 0.27 M sucrose, 1% (v/v) Triton X-100, 1 μg/ml aprotinin, 1 μg/ml leupeptin and 1 mM phenylmethylsulphonyl fluoride). Cell extracts were clarified by centrifugation at 14000×g for 10 min at 4° C. and protein concentrations determined using the Bradford assay. To detect proteins in cell lysates, 20 μg of protein extract was separated by SDS-PAGE. After transfer to PVDF membranes, proteins were detected by immunoblotting and visualized by treating the blots with ECL (Amersham) followed by autoradiography. The antibody recognizing CREB phosphorylated at Ser133 was from Cell Signalling Technology and the one detecting α-tubulin was obtained from Sigma.
# [6] = system: LKB1−/− cells; experiment: CREB-dependent gene transcription in IL-1 stimulated LKB1+/+ and LKB1−/− MEFs; assay type: cell-based, mouse
# [7] = system: IL-10−/− macrophages; experiment: Cytokine production in IL-10−/− macrophages; assay type: cell-based, mouse; conditions: all TLR ligands examined other than LPS
# Protocol: as §1
# IL-10^−/− mice on a C57Bl/6 background were purchased from The Jackson Laboratory, Maine, USA. C57Bl/6, and IL-10^−/− mice were bred at the University of Dundee under specific pathogen-free conditions in accordance with European Union regulations. Work was approved by local ethical review and was performed with a UK Home Office project license.
# as §2
# Following stimulation with ligands, the cell culture medium was removed, clarified by centrifugation for 10 min at 14000×g and the concentration of TNFα, IL-6, IL-10, IL-12p40, and RANTES were measured using the Bio-Plex Pro Assay system from Bio-Rad. IFNβ was measured using an ELISA kit from R&D Systems according to the manufacturers' instructions.
SMILES,"IC50 ([1]; read-out: IC50 for stimulation of IL-10 mRNA, SIK1/2/3 shRNA cells, 1 μg/ml Pam3CSK4 1 h)","IC50 ([1]; read-out: IC50 for stimulation of IL-10 mRNA, control shRNA cells, 1 μg/ml Pam3CSK4 1 h)",IL-10 mRNA expression in SIK-depleted versus wild-type macrophages ([1]; suboptimal concentration (100 nM)),CRTC3 nuclear translocation [2],inhibition of MARK isoforms [3],inhibition of NUAK isoforms [4],LPS-stimulated phosphorylation of STAT3 ([5]; 2 μM MRT67307),"phosphorylation of STAT3 ([5]; LPS-stimulated macrophages from IL-10−/− mice, presence or absence of compound)",CREB-dependent gene transcription ([6]; LKB1+/+ cells),transcription of Nurr1 and Nurr77 ([6]; LKB1−/− cells),secretion of pro-inflammatory cytokines [7]
"COc1ccc(N(C(=O)Nc2c(C)cccc2C)c2cc(Nc3ccc(N4CCN(C)CC4)cc3)ncn2)c(OC)c1 [HG-9-91-01, 1-(2,4-dimethoxyphenyl)-3-(2,6-dimethylphenyl)-1-(6-((4-(4-methylpiperazin-1-yl)phenyl)amino)pyrimidin-4-yl)urea]",0.15 ± 0.02 µM,0.26 ± 0.01 µM,4 fold,translocates to the nucleus,,,,,,,
O=C(NCCCNc1nc(Nc2cccc(CN3CCOCC3)c2)ncc1C1CC1)C1CCC1 [MRT67307],,,,,comparable potency to the IKK-related kinases,comparable potency to the IKK-related kinases,increased,no phosphorylation of STAT3 occurred,enhanced,only be increased to a small extent,failed to suppress
